We go through 23 compounds from patent US20240101549A1, “N-(2-(4-CYANOTHIAZOLIDIN-3-YL)-2-OXOETHYL)-QUINOLINE-4-CARBOXAMIDES” (AstraZeneca AB, priority 2020, published 2024).

Chain of FAP (A0A2K5VGH4 entry or part of it): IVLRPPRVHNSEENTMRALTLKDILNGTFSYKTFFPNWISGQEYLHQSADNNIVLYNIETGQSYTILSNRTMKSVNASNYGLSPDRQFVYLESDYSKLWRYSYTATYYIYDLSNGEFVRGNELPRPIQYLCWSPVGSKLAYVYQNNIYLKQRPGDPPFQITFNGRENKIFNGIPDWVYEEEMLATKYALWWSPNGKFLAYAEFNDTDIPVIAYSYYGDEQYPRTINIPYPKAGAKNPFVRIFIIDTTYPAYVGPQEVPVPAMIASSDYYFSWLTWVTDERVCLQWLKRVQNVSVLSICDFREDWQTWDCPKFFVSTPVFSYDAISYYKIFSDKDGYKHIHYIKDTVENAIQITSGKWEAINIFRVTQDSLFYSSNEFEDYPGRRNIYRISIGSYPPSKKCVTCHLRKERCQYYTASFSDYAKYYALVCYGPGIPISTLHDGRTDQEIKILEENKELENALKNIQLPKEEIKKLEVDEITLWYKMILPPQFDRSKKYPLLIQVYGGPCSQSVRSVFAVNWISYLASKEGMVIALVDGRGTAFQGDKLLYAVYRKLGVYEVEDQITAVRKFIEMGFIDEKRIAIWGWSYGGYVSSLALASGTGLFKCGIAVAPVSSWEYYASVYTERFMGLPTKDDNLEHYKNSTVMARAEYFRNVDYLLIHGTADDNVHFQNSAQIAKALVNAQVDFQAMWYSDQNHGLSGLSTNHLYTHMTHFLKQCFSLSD

Test system in the first data set: not listed separately
The data set can be described thus: Caco-2 cell permeability. The data set is classed as in vitro ADME. The conditions noted are these: human, Caco-2, AB intrinsic; n = 1 or average of n = 2-4; read-out: Caco2 AB Intrinsic Papp.
Method: Caco-2 cell permeability was measured as described in Mol Pharm 2017, 14, 1601.
Turning to `COCC1(C)CN(c2ccc3nccc(C(=O)NCC(=O)N4CSC[C@H]4C#N)c3c2)C1` [Example 29, (R)—N-(2-(4-Cyanothiazolidin-3-yl)-2-oxoethyl)-6-(3-(methoxymethyl)-3-methylazetidin-1-yl)quinoline-4-carboxamide], the Papp A→B is 26 ×10⁻⁶ cm/s.

Consider `CO[C@@H]1CN(c2ccc3nccc(C(=O)NCC(=O)N4CSC[C@H]4C#N)c3c2)[C@H]1C` [Example 30, N-(2-((R)-4-Cyanothiazolidin-3-yl)-2-oxoethyl)-6-((2S,3R)-3-methoxy-2-methylazetidin-1-yl)quinoline-4-carboxamide], for which the Papp A→B worked out at 15 ×10⁻⁶ cm/s.

In a further data set the target is FAP (Macaca fascicularis, UniProt A0A2K5VGH4). The data set can be described thus: FAP plasma inhibition assay, cynomolgus plasma. Type of data set: biochemical. The conditions noted are these: cynomolgus plasma diluted 1:40, 75 μM Ala-Pro-AMC; n = 1; read-out: FAP Cyno Plasma IC50. On the procedure:
D. FAP Plasma Inhibition Assay This assay was adapted from the method described in Example 237 for detection of FAP target engagement enzyme activity in plasma. […] Compounds were tested using 10 CR, 3 fold dilution series from 500 nM FAC. Two replicates for each assay point were run on the same plate. A fluorescence blank read was taken before substrate addition. […] Plates were incubated for 40 min at rt in the dark. […] IC50 values were determined by plotting % inhibition versus log compound concentration.
Regarding `COC1CCN(c2ccc3nccc(C(=O)NCC(=O)N4CSC[C@H]4C#N)c3c2)CC1` [Example 8, (R)—N-(2-(4-Cyanothiazolidin-3-yl)-2-oxoethyl)-6-(4-methoxypiperidin-1-yl)quinoline-4-carboxamide], the half-maximal inhibitory concentration (IC50) was found to be 0.2 nM.

Take `CC1(C)OCCN(c2ccc3nccc(C(=O)NCC(=O)N4CSC[C@H]4C#N)c3c2)C1=O` [Example 16, (R)—N-(2-(4-Cyanothiazolidin-3-yl)-2-oxoethyl)-6-(2,2-dimethyl-3-oxomorpholino)quinoline-4-carboxamide]: the IC50 stood at 0.2 nM.

For the compound `CC1(F)CN(c2ccc3nccc(C(=O)NCC(=O)N4CSC[C@H]4C#N)c3c2)C1` [Example 24, (R)—N-(2-(4-Cyanothiazolidin-3-yl)-2-oxoethyl)-6-(3-fluoro-3-methyl-azetidin-1-yl)quinoline-4-carboxamide], the concentration for half-maximal inhibition (IC50) came to 0.3 nM.

With `CC1(CF)CN(c2ccc3nccc(C(=O)NCC(=O)N4CSC[C@H]4C#N)c3c2)C1` [Example 27, (R)—N-(2-(4-Cyanothiazolidin-3-yl)-2-oxoethyl)-6-(3-(fluoromethyl)-3-methylazetidin-1-yl)quinoline-4-carboxamide], the IC50 stood at 0.3 nM.

For `N#C[C@@H]1CSCN1C(=O)CNC(=O)c1ccnc2ccc(N3C[C@@H](F)[C@@H](F)C3)cc12` [Example 50, N-(2-((R)-4-Cyanothiazolidin-3-yl)-2-oxoethyl)-6-((3R,4S)-3,4-difluoropyrrolidin-1-yl)quinoline-4-carboxamide], the IC50 stood at 0.3 nM.

In the case of `C[C@@H]1CN(c2ccc3nccc(C(=O)NCC(=O)N4CSC[C@H]4C#N)c3c2)C[C@H](C)O1` [Example 68, N-(2-((R)-4-Cyanothiazolidin-3-yl)-2-oxoethyl)-6-((2R,6S)-2,6-dimethylmorpholino)-quinoline-4-carboxamide], the concentration for half-maximal inhibition (IC50) was determined as 0.3 nM.

In the case of `N#C[C@@H]1CSCN1C(=O)CNC(=O)c1ccnc2ccc(N3CCO[C@@H](CF)C3)cc12` [Example 69, N-(2-((R)-4-Cyanothiazolidin-3-yl)-2-oxoethyl)-6-((R)-2-(fluoromethyl)morpholino)-quinoline-4-carboxamide], the 50% inhibitory concentration (IC50) is 0.2 nM.

For `C[C@@H]1CN(c2ccc3nccc(C(=O)NCC(=O)N4CSC[C@H]4C#N)c3c2)C[C@@H](C)O1` [Example 70, N-(2-((R)-4-Cyanothiazolidin-3-yl)-2-oxoethyl)-6-((2R,6R)-2,6-dimethylmorpholino)-quinoline-4-carboxamide], the IC50 stood at 0.2 nM.

As to `N#C[C@@H]1CSCN1C(=O)CNC(=O)c1ccnc2ccc(N3CCO[C@H](CF)C3)cc12` [Example 71, N-(2-((R)-4-Cyanothiazolidin-3-yl)-2-oxoethyl)-6-((S)-2-(fluoromethyl)morpholino)-quinoline-4-carboxamide], the IC50 was found to be 0.2 nM.

With `C[C@@H]1CN(c2ccc3nccc(C(=O)NCC(=O)N4CSC[C@H]4C#N)c3c2)CCO1` [Example 72, N-(2-((R)-4-Cyanothiazolidin-3-yl)-2-oxoethyl)-6-((R)-2-methylmorpholino)-quinoline-4-carboxamide], the IC50 came to 0.2 nM.

For `N#C[C@@H]1CSCN1C(=O)CNC(=O)c1ccnc2ccc(N3CCO[C@H](C(F)(F)F)C3)cc12` [Example 74, N-(2-((R)-4-Cyanothiazolidin-3-yl)-2-oxoethyl)-6-((S)-2-(trifluoromethyl)-morpholino)quinoline-4-carboxamide], the IC50 was determined as 0.2 nM.

Regarding `C[C@@H]1OCCN(c2ccc3nccc(C(=O)NCC(=O)N4CSC[C@H]4C#N)c3c2)[C@H]1C` [Example 82, N-(2-((R)-4-Cyanothiazolidin-3-yl)-2-oxoethyl)-6-((2S,3S)-2,3-dimethyl-morpholino)quinoline-4-carboxamide], the IC50 was determined as 0.3 nM.

For `C[C@H]1COCCN1c1ccc2nccc(C(=O)NCC(=O)N3CSC[C@H]3C#N)c2c1` [Example 102, N-(2-((R)-4-Cyanothiazolidin-3-yl)-2-oxoethyl)-6-((S)-3-methyl-morpholino)quinoline-4-carboxamide], the concentration for half-maximal inhibition (IC50) was determined as 0.2 nM.

`CC1(C)CCN(c2ccc3nccc(C(=O)NCC(=O)N4CSC[C@H]4C#N)c3c2)C(=O)O1` [Example 112, (R)—N-(2-(4-Cyanothiazolidin-3-yl)-2-oxoethyl)-6-(6,6-dimethyl-2-oxo-1,3-oxazinan-3-yl)quinoline-4-carboxamide]: the IC50 is 0.5 nM.

Take `CC(F)(F)C1CN(c2ccc3nccc(C(=O)NCC(=O)N4CSC[C@H]4C#N)c3c2)C1` [Example 147, (R)—N-(2-(4-Cyanothiazolidin-3-yl)-2-oxoethyl)-6-(3-(1,1-difluoroethyl)-azetidin-1-yl)quinoline-4-carboxamide]: the concentration for half-maximal inhibition (IC50) was determined as 0.1 nM.

In the case of `COC1(C)CN(c2ccc3nccc(C(=O)NCC(=O)N4CSC[C@H]4C#N)c3c2)C1` [Example 151, (R)—N-(2-(4-Cyanothiazolidin-3-yl)-2-oxoethyl)-6-(3-methoxy-3-methylazetidin-1-yl)quinoline-4-carboxamide], the concentration for half-maximal inhibition (IC50) was 0.3 nM.

For `N#C[C@@H]1CSCN1C(=O)CNC(=O)c1ccnc2ccc(N3CC(F)(CF)C3)cc12` [Example 157, (R)—N-(2-(4-Cyanothiazolidin-3-yl)-2-oxoethyl)-6-(3-fluoro-3-(fluoromethyl)azetidin-1-yl)quinoline-4-carboxamide], the half-maximal inhibitory concentration (IC50) is 0.4 nM.

With `N#C[C@@H]1CSCN1C(=O)CNC(=O)c1ccnc2ccc(N3CC4(C3)OCCO4)cc12` [Example 163, (R)—N-(2-(4-Cyanothiazolidin-3-yl)-2-oxoethyl)-6-(5,8-dioxa-2-azaspiro[3.4]octan-2-yl)quinoline-4-carboxamide], the IC50 is 0.2 nM.

In the case of `CC(=O)NCC1(C)CN(c2ccc3nccc(C(=O)NCC(=O)N4CSC[C@H]4C#N)c3c2)C1` [Example 181, (R)-6-(3-(Acetamidomethyl)-3-methylazetidin-1-yl)-N-(2-(4-cyano-thiazolidin-3-yl)-2-oxoethyl)quinoline-4-carboxamide], the 50% inhibitory concentration (IC50) stood at 0.5 nM.

For the compound `CN1CCC(F)(c2ccc3nccc(C(=O)NCC(=O)N4CSC[C@H]4C#N)c3c2)CC1` [Example 195, (R)—N-(2-(4-Cyanothiazolidin-3-yl)-2-oxoethyl)-6-(4-fluoro-1-methyl-piperidin-4-yl)quinoline-4-carboxamide], the half-maximal inhibitory concentration (IC50) is 1 nM.

On to `N#C[C@@H]1CSCN1C(=O)CNC(=O)c1ccnc2ccc(N3CCC(F)CC3)cc12` [Example 205, (R)—N-(2-(4-Cyanothiazolidin-3-yl)-2-oxoethyl)-6-(4-fluoropiperidin-1-yl)quinoline-4-carboxamide], for which the half-maximal inhibitory concentration (IC50) turned out to be 0.3 nM.
